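Step 1: Grow cells in 96-well plates. Step 2: Expose to compound for 48 hours at 5 concentrations. Step 3: Interpolate endpoints linearly; if unreached, use highest concentration. The concentration for 50% growth inhibition is given as GI50. Definition used: TGI = concentration required for complete inhibition of growth.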
Columns and labels:
Test in all cases: growth of human tumour cells (NCI), 48 h
SNB-19 CNS = test system: SNB-19 CNS
RPMI-8226 leukemia = test system: RPMI-8226 leukemia
KM12 colon = test system: KM12 colon
HOP-62 NSCLC = test system: HOP-62 NSCLC
T-47D breast = test system: T-47D breast
HCT-15 colon = test system: HCT-15 colon
A549 NSCLC = test system: A549 NSCLC
LOX IMVI melanoma = test system: LOX IMVI melanoma
CCRF-CEM leukemia = test system: CCRF-CEM leukemia
SK-MEL-2 melanoma = test system: SK-MEL-2 melanoma
SK-MEL-5 melanoma = test system: SK-MEL-5 melanoma
EKVX NSCLC = test system: EKVX NSCLC
OVCAR-4 ovarian = test system: OVCAR-4 ovarian
MDA-MB-231 breast = test system: MDA-MB-231 breast
SF-539 CNS = test system: SF-539 CNS
UO-31 renal = test system: UO-31 renal
NCI-H226 lung = test system: NCI-H226 lung
OVCAR-3 ovarian = test system: OVCAR-3 ovarian
UACC-62 melanoma = test system: UACC-62 melanoma
HCC-2998 colon = test system: HCC-2998 colon
SW-620 colon = test system: SW-620 colon
BT-549 breast = test system: BT-549 breast
MALME-3M melanoma = test system: MALME-3M melanoma
HOP-92 NSCLC = test system: HOP-92 NSCLC
OVCAR-5 ovarian = test system: OVCAR-5 ovarian
SF-268 CNS = test system: SF-268 CNS
SR leukemia = test system: SR leukemia
K-562 leukemia = test system: K-562 leukemia
UACC-257 melanoma = test system: UACC-257 melanoma
PC-3 prostate = test system: PC-3 prostate
SNB-75 CNS = test system: SNB-75 CNS
CAKI-1 renal = test system: CAKI-1 renal
SK-OV-3 ovarian = test system: SK-OV-3 ovarian
MOLT-4 leukemia = test system: MOLT-4 leukemia
HT29 colon = test system: HT29 colon
NCI-H522 lung = test system: NCI-H522 lung
SF-295 CNS = test system: SF-295 CNS
IGROV1 ovarian = test system: IGROV1 ovarian
U251 CNS = test system: U251 CNS
SK-MEL-28 melanoma = test system: SK-MEL-28 melanoma
HL-60(TB) leukemia = test system: HL-60(TB) leukemia
SN12C renal = test system: SN12C renal
MCF7 breast = test system: MCF7 breast
ACHN renal = test system: ACHN renal
NCI-H460 lung = test system: NCI-H460 lung
OVCAR-8 ovarian = test system: OVCAR-8 ovarian
DU-145 prostate = test system: DU-145 prostate
HS 578T breast = test system: HS 578T breast
RXF 393 renal = test system: RXF 393 renal
A498 renal = test system: A498 renal
TK-10 renal = test system: TK-10 renal
MDA-MB-435 = test system: MDA-MB-435
NCI/ADR-RES ovarian = test system: NCI/ADR-RES ovarian
786-0 renal = test system: 786-0 renal
COLO 205 colon = test system: COLO 205 colon
HCT-116 colon = test system: HCT-116 colon
NCI-H23 lung = test system: NCI-H23 lung
M14 melanoma = test system: M14 melanoma

COc1nccc(-c2c(-c3ccc(F)cc3)ncn2C2CCC(O)CC2)n1 (stereo unspecified)
GI50 (SNB-19 CNS): > 100 µM
TGI (SNB-19 CNS): > 100 µM
GI50 (RPMI-8226 leukemia): > 70.3 µM
TGI (RPMI-8226 leukemia): > 100 µM
GI50 (KM12 colon): > 85.6 µM
TGI (KM12 colon): > 100 µM
GI50 (HOP-62 NSCLC): 99 µM
TGI (HOP-62 NSCLC): > 100 µM
GI50 (T-47D breast): 54.5 µM
TGI (T-47D breast): > 100 µM
GI50 (HCT-15 colon): 36.6 µM
TGI (HCT-15 colon): > 100 µM
GI50 (A549 NSCLC): 32.4 µM
TGI (A549 NSCLC): > 100 µM
GI50 (LOX IMVI melanoma): > 92.9 µM
TGI (LOX IMVI melanoma): > 100 µM
GI50 (CCRF-CEM leukemia): > 84.5 µM
TGI (CCRF-CEM leukemia): > 100 µM
GI50 (SK-MEL-2 melanoma): > 100 µM
TGI (SK-MEL-2 melanoma): > 100 µM
GI50 (SK-MEL-5 melanoma): 43.1 µM
TGI (SK-MEL-5 melanoma): > 100 µM
GI50 (EKVX NSCLC): 78.2 µM
TGI (EKVX NSCLC): > 100 µM
GI50 (OVCAR-4 ovarian): > 65.3 µM
TGI (OVCAR-4 ovarian): > 100 µM
GI50 (MDA-MB-231 breast): > 100 µM
TGI (MDA-MB-231 breast): > 100 µM
GI50 (SF-539 CNS): > 100 µM
TGI (SF-539 CNS): > 100 µM
GI50 (UO-31 renal): 10.1 µM
TGI (UO-31 renal): > 100 µM
GI50 (NCI-H226 lung): > 77.8 µM
TGI (NCI-H226 lung): > 100 µM
GI50 (OVCAR-3 ovarian): > 82 µM
TGI (OVCAR-3 ovarian): > 100 µM
GI50 (UACC-62 melanoma): > 86.9 µM
TGI (UACC-62 melanoma): > 100 µM
GI50 (HCC-2998 colon): > 100 µM
TGI (HCC-2998 colon): > 100 µM
GI50 (SW-620 colon): > 70.8 µM
TGI (SW-620 colon): > 100 µM
GI50 (BT-549 breast): > 100 µM
TGI (BT-549 breast): > 100 µM
GI50 (MALME-3M melanoma): > 100 µM
TGI (MALME-3M melanoma): > 100 µM
GI50 (HOP-92 NSCLC): > 100 µM
TGI (HOP-92 NSCLC): > 100 µM
GI50 (OVCAR-5 ovarian): 43.8 µM
TGI (OVCAR-5 ovarian): > 100 µM
GI50 (SF-268 CNS): > 84.6 µM
TGI (SF-268 CNS): > 100 µM
GI50 (SR leukemia): 43 µM
TGI (SR leukemia): > 100 µM
GI50 (K-562 leukemia): 44.1 µM
TGI (K-562 leukemia): > 100 µM
GI50 (UACC-257 melanoma): > 100 µM
TGI (UACC-257 melanoma): > 100 µM
GI50 (PC-3 prostate): > 100 µM
TGI (PC-3 prostate): > 100 µM
GI50 (SNB-75 CNS): > 100 µM
TGI (SNB-75 CNS): > 100 µM
GI50 (CAKI-1 renal): 25.2 µM
TGI (CAKI-1 renal): > 100 µM
GI50 (SK-OV-3 ovarian): 57.3 µM
TGI (SK-OV-3 ovarian): > 100 µM
GI50 (MOLT-4 leukemia): > 95.3 µM
TGI (MOLT-4 leukemia): > 100 µM
GI50 (HT29 colon): 42.6 µM
TGI (HT29 colon): > 100 µM
GI50 (NCI-H522 lung): > 60.1 µM
TGI (NCI-H522 lung): > 100 µM
GI50 (SF-295 CNS): > 100 µM
TGI (SF-295 CNS): > 100 µM
GI50 (IGROV1 ovarian): 22.2 µM
TGI (IGROV1 ovarian): > 100 µM
GI50 (U251 CNS): > 86.9 µM
TGI (U251 CNS): > 100 µM
GI50 (SK-MEL-28 melanoma): > 58.3 µM
TGI (SK-MEL-28 melanoma): > 100 µM
GI50 (HL-60(TB) leukemia): 56.7 µM
TGI (HL-60(TB) leukemia): > 100 µM
GI50 (SN12C renal): 61.8 µM
TGI (SN12C renal): > 100 µM
GI50 (MCF7 breast): 24.9 µM
TGI (MCF7 breast): > 100 µM
GI50 (ACHN renal): 14.8 µM
TGI (ACHN renal): > 100 µM
GI50 (NCI-H460 lung): 29.9 µM
TGI (NCI-H460 lung): > 100 µM
GI50 (OVCAR-8 ovarian): 89.1 µM
TGI (OVCAR-8 ovarian): > 100 µM
GI50 (DU-145 prostate): 72.8 µM
TGI (DU-145 prostate): > 100 µM
GI50 (HS 578T breast): > 100 µM
TGI (HS 578T breast): > 100 µM
GI50 (RXF 393 renal): > 79.2 µM
TGI (RXF 393 renal): > 100 µM
GI50 (A498 renal): 21.5 µM
TGI (A498 renal): > 100 µM
GI50 (TK-10 renal): 39.4 µM
TGI (TK-10 renal): > 100 µM
GI50 (MDA-MB-435): 54.3 µM
TGI (MDA-MB-435): > 100 µM
GI50 (NCI/ADR-RES ovarian): > 100 µM
TGI (NCI/ADR-RES ovarian): > 100 µM
GI50 (786-0 renal): > 100 µM
TGI (786-0 renal): > 100 µM
GI50 (COLO 205 colon): 99.6 µM
TGI (COLO 205 colon): > 100 µM
GI50 (HCT-116 colon): 79.3 µM
TGI (HCT-116 colon): > 100 µM
GI50 (NCI-H23 lung): > 100 µM
TGI (NCI-H23 lung): > 100 µM
GI50 (M14 melanoma): > 100 µM
TGI (M14 melanoma): > 100 µM

Source: PubChem BioAssay (NCI)
